For assay [1], the system named is Enterococcus faecalis. As to the kind of experiment: Antibacterial activity against Enterococcus faecalis W-73. The class given is functional.
The test system of assay [2] is Staphylococcus aureus. As to the kind of experiment: Antibacterial activity against […] resistant Staphylococcus aureus M133 (MRSA). The class given is functional.
The subject of assay [3] is Staphylococcus aureus. The assay can be described thus: Antibacterial activity against […] resistant Staphylococcus aureus M126 (MRSA). The class given is functional.
For assay [4], the system named is Enterococcus faecalis. The assay can be described thus: Antibacterial activity against vancomycin resistant Enterococcus faecalis NCTC 12201 (VRE). The class given is functional.
A further assay has as its system Enterococcus faecium. As to the kind of experiment: Antibacterial activity against vancomycin resistant Enterococcus faecium vanA (VRE). In kind it is functional.
The subject of assay [5] is Staphylococcus aureus. As to the kind of experiment: Antibacterial activity against Staphylococcus aureus 209P JC-1. The class given is functional.
The test system of a further assay is Enterococcus hirae. As to the kind of experiment: Antibacterial activity against Enterococcus hirae ATCC 8043. In kind it is functional.
Assay [6] concerns Staphylococcus epidermidis. As to the kind of experiment: Antibacterial activity against Staphylococcus epidermidis ATCC 14990. In kind it is functional.
In assay [7] the test system is Enterococcus faecalis. The assay can be described thus: Antibacterial activity against Enterococcus faecalis W-73.

Converted amounts (≈) assume the structure as drawn.

As a reminder, the MIC is the least concentration at which growth counts as inhibited. Low values mean greater potency, high ones weaker potency. Regarding `C[N+]1(C)CC23c4c5c6c7c8c9c%10c%11c%12c%13c%14c%15c%16c%17c%18c%19c%20c(c2c2c4c4c6c6c8c%10c8c%12c%10c%14c(c%15%19)c%12c%20c2c2c4c6c8c%10c%122)C%18C2c4c6c8c%10c(c4-%17)C%16C%13C%114C[N+](C)(C)CC%104C=9C8C7C5=C6C23C1.[I-].[I-]` (centres undefined), the MIC in the assay with Enterococcus faecalis [1] came out at 6.25 µg/mL; in the assay on Staphylococcus aureus [2], 1.56 µg/mL; with Staphylococcus aureus [3] it was 1.56 µg/mL; against Enterococcus faecalis [4], 3.12 µg/mL; in the assay with Enterococcus faecium it was 6.25 µg/mL; against Staphylococcus aureus [5], 0.78 µg/mL. The results for the MIC (against Enterococcus hirae; in [6]) were 6.25 µg/mL and 3.12 µg/mL, respectively.
`CCCCC1C23C4=c5c6c7c8c9c%10c%11c%12c%13c%14c%15c%16c%17c%18c%19c%20c%21c%22c%23c(c5c5c6c6c8c%11c8c%11c%12c%15c%12c(c%20%16)c%21c%15c%23c5c(c68)c%15c%12%11)C2(C[N+]1(C)C)C%22C%19c1c-%18c2c5c(c13)C4C7C9=C5C1(C2C%17%14)C(CCCC)[N+](C)(C)CC%10%131.[I-].[I-]` (centres undefined): the MIC was found to be 6.25 µg/mL against Enterococcus faecalis [1]; 6.25 µg/mL against Staphylococcus aureus [2]; 6.25 µg/mL with Staphylococcus aureus [3]; 6.25 µg/mL in the assay on Enterococcus faecalis [4]; 12.5 µg/mL with Enterococcus faecium; 6.25 µg/mL against Staphylococcus aureus [5]. The MIC (with Enterococcus hirae; in assay [6]) was 6.25 µg/mL throughout.
Regarding `C[N+]1(C)CC23C4=C5C6=C7C8C9=c%10c%11c%12c%13c%14c%15c%16c%17c%18c%19c%20c%21c%22c%23c(c4c4c2c2c%24c%25c(c%10c(c%11%15)c%10c%16c%19c(c%25%10)c%10c%20c%23c4c%24%10)C2C9C73C1)C1C%22=C2c3c(c6c(c-%13c3C(C%14%17)C23C[N+](C)(C)CC%21%183)C%128)C51.[I-].[I-]` (centres undefined), the MIC stood at 12.5 µg/mL against Enterococcus faecalis [1]; 0.78 µg/mL with Staphylococcus aureus [2]; 3.12 µg/mL against Staphylococcus aureus [3]; 12.5 µg/mL against Enterococcus faecalis [4]; 12.5 µg/mL in the assay with Enterococcus faecium; 1.56 µg/mL in the assay with Staphylococcus aureus [5]. Further, the MIC was found to be 12.5 µg/mL against Enterococcus hirae and 6.25 µg/mL in assay [6].
On to `CCCCCCCCCC1C23C4=C5c6c7c8c9c(c%10c%11c%12c%13c%14c%15c%16c%17c%18c%19c%20c%21c%22c%23c%24c(c6c6c8c8c%25c9c%11c%14c%25c9c%15c%18c%11c(c%23%19)c%24c6c8c%119)C5C%22c5c4c4c6c(c5-%21)C(C%20%17)C5(C6=C%12C%10C42)C(CCCCCCCCC)[N+](C)(C)CC%13%165)C73C[N+]1(C)C.[I-].[I-]` (centres undefined), for which the MIC (in the assay with Enterococcus faecalis [1]; against Enterococcus faecalis [4]; with Enterococcus faecium; in the assay with Staphylococcus aureus [5]; in the assay on Enterococcus hirae; in assay [6]) was over 100 µg/mL in each case.
In the case of `C[N+]1(C)CC23c4c5c6c7c8c9c%10c%11c%12c%13c%14c%15c%16c%17c%18c%19c%20c%21c(c2c2c4c4c6c9c6c4c4c2c%21c2c%19c(c%18%14)c9c%13c%10c6c9c24)C2=C4c6c(c-%16c9c%10c6C(C5C7=C%10C5(C[N+](C)(C)CC8%115)C9C%15%12)C43C1)C%17C2%20.[I-].[I-]` (centres undefined), the MIC in the assay on Enterococcus faecalis [1] amounted to 6.25 µg/mL; in the assay with Staphylococcus aureus [2] it was 3.12 µg/mL; in the assay on Staphylococcus aureus [3], 3.12 µg/mL; in the assay with Enterococcus faecalis [4], 6.25 µg/mL; with Enterococcus faecium it was 6.25 µg/mL; against Staphylococcus aureus [5] it was 3.12 µg/mL. The MIC with Enterococcus hirae amounted to 6.25 µg/mL; in [6], 3.12 µg/mL.
On to `CCCCCCC1C23C4=c5c6c7c8c9c%10c%11c%12c%13c%14c%15c%16c%17c%18c%19c%20c%21c%22c%23c(c5c5c6c6c8c%11c8c%11c%12c%15c%12c(c%20%16)c%21c%15c%23c5c(c68)c%15c%12%11)C2(C[N+]1(C)C)C%22C%19c1c-%18c2c5c(c13)C4C7C9=C5C1(C2C%17%14)C(CCCCCC)[N+](C)(C)CC%10%131.[I-].[I-]` (centres undefined), for which the MIC against Staphylococcus aureus [2] turned out to be 12.5 µg/mL; in the assay with Staphylococcus aureus [3], 12.5 µg/mL; against Enterococcus faecalis [4], 25 µg/mL; against Enterococcus faecalis [7] it was 50 µg/mL; with Enterococcus faecium, 12.5 µg/mL; in the assay with Staphylococcus aureus [5] it was 6.25 µg/mL. The MIC worked out at 25 µg/mL with Enterococcus hirae and 12.5 µg/mL in assay [6].
With `CN[C@H](CC(C)C)C(=O)N[C@H]1C(=O)N[C@@H](CC(N)=O)C(=O)N[C@H]2C(=O)N[C@H]3C(=O)N[C@H](C(=O)N[C@H](C(=O)O)c4cc(O)cc(O)c4-c4cc3ccc4O)[C@H](O)c3ccc(c(Cl)c3)Oc3cc2cc(c3O[C@@H]2O[C@H](CO)[C@@H](O)[C@H](O)[C@H]2O[C@H]2C[C@](C)(N)[C@H](O)[C@H](C)O2)Oc2ccc(cc2Cl)[C@H]1O` [VANCOMYCIN], the minimum inhibitory concentration (MIC) in the assay on Enterococcus faecalis [1] was 3.12 µg/mL (≈ 2.15 µM); in the assay on Staphylococcus aureus [2] it was 1.56 µg/mL (≈ 1.08 µM); against Staphylococcus aureus [3], 1.56 µg/mL (≈ 1.08 µM); with Enterococcus faecalis [4], over 100 µg/mL; with Enterococcus faecium it was over 100 µg/mL; with Staphylococcus aureus [5] it was 1.56 µg/mL (≈ 1.08 µM). The MIC (in the assay on Enterococcus hirae; in assay [6]) was 3.12 µg/mL (≈ 2.15 µM) each time.

Source of the values: ChEMBL document CHEMBL1136488, “Antibacterial and antiproliferative activity of cationic fullerene derivatives” (2003).
